Experimental findings from the NIST ThermoML archive (doi:10.1021/je034227w) are described below.

The conditions of this data set: Liquid; for mass density: 298.15 K, 101.33 kPa.

Numbers after ± are expanded uncertainties.

The term mass density denotes the mass of a sample divided by its volume. `CCO` [ethanol]: the mass density turned out to be 785.1 ± 5 kg/m3 and the Normal boiling temperature is 78.31 ± 0.03 °C.
For the compound `CO` [methanol], the mass density stood at 786.5 ± 5 kg/m3 and the Normal boiling temperature is 64.52 ± 0.03 °C.
